According to patent US11939334B2, “Substituted pyrimido[4,5-b][1,4]diazepines as PLK1 degradation inducers” (UPPTHERA, INC., priority 2021, dated 2024):

Experiments:
PLK1 = molecular target: T1, PLK1 (Homo sapiens, UniProt P53350); test: Luciferase assay for PLK1 in HeLa LgBit (Plk1-HiBit KI) cell line; format: cell-based; conditions: 300 nM compound, luminescence after 9 hours
T1 construct: endogenous in cells; host or cells: HeLa cells stably expressing LgBit, with CRISPR/Cas9 knock-in of HiBit at the endogenous PLK1 locus
Summary of the method: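 HeLa LgBit cells with endogenous Plk1 C-terminally HiBiT-tagged by CRISPR knock-in were synchronized by 2 mM thymidine block for 24 h, then released and seeded. After 18 h, Endurazine was added and compounds were dosed at 300 nM. Luminescence was tracked in real time; activity is the ratio to DMSO.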

H526 cell line = test: Cell viability assay for H526 cell line; format: cell-based; conditions: Homo sapiens, NCI-H526, 120 h; H526 cells, 5 days, EZ-Cytox, 0.46-3000 nM
Summary of the method: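 NCI-H526 cells exposed to compounds for 5 days in a CO2 incubator; viability read as absorbance at 450 nm after 3 min plate shaking; IC50 derived from treatment response.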

MRC-5 cell line = test: Cell viability assay for MRC-5 cell line; conditions: Homo sapiens, MRC5, 120 h, read-out: Activity: IC50 value (nM) to MRC-5 cell line

T1 sequence (P53350 whole entry): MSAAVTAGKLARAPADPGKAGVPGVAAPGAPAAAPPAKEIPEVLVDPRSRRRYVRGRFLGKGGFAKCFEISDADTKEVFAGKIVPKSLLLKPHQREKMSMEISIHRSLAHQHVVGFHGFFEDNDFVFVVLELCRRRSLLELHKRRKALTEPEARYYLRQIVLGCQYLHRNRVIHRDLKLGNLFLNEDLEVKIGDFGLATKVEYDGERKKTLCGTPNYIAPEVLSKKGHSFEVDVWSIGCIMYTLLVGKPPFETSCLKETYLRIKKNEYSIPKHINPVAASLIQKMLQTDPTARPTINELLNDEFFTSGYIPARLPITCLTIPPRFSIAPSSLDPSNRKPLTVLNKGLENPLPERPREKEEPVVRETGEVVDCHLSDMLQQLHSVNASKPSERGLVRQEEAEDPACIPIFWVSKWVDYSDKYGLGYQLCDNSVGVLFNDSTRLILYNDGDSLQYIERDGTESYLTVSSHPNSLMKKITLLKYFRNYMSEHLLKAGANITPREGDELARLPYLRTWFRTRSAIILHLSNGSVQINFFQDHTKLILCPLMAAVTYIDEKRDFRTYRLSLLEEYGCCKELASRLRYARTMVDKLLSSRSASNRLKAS

Row | Activity: ratio of the luminescence value of each Exemplary Compound treatment group to DMSO treatment group (PLK1) | Compound | IC50 (H526 cell line) [µM] | IC50 (MRC-5 cell line) [nM]
1 | ++ (++ <0.6) | COc1cc(C(=O)NC2CC3(CCN(CC4CCN(c5c(F)cc(C6CCC(=O)NC6=O)cc5F)CC4)CC3)C2)ccc1Nc1ncc2c(n1)N(C(C)C)CC(F)(F)C(=O)N2C (stereo not drawn) [Compound 15, 4-((7,7-difluoro-9-isopropyl-5-methyl-6-oxo-6,7,8,9-tetrahydro-5H-pyrimido[4,5-b][1,4]diazepin-2-yl)amino)-N-(7-((1-(4-(2,6-dioxopiperidin-3-yl)-2,6-difluorophenyl)piperidin-4-yl)methyl)-7-azaspiro[3.5]nonan-2-yl)-3-methoxybenzamide] | < 0.03 | 17700
2 | ++ (++ <0.6) | COc1cc(C(=O)NC2CC3(CCN(CC4CCN(c5ccc(C6CCC(=O)NC6=O)cc5)CC4)CC3)C2)ccc1Nc1ncc2c(n1)N(C(C)C)CC(F)(F)C(=O)N2C (stereo not drawn) [Compound 19, 4-((7,7-difluoro-9-isopropyl-5-methyl-6-oxo-6,7,8,9-tetrahydro-5H-pyrimido[4,5-b][1,4]diazepin-2-yl)amino)-N-(7-((1-(4-(2,6-dioxopiperidin-3-yl)phenyl)piperidin-4-yl)methyl)-7-azaspiro[3.5]nonan-2-yl)-3-methoxybenzamide] | < 0.03 | 13100
3 | ++ (++ <0.6) | Cc1cc(C(=O)NC2CC3(CCN(CC4CCN(c5ccc(C6CCC(=O)NC6=O)cc5F)CC4)CC3)C2)c(F)cc1Nc1ncc2c(n1)N(C(C)C)CC(F)(F)C(=O)N2C (stereo not drawn) [Compound 21, 4-((7,7-difluoro-9-isopropyl-5-methyl-6-oxo-6,7,8,9-tetrahydro-5H-pyrimido[4,5-b][1,4]diazepin-2-yl)amino)-N-(7-((1-(4-(2,6-dioxopiperidin-3-yl)-2-fluorophenyl)piperidin-4-yl)methyl)-7-azaspiro[3.5]nonan-2-yl)-2-fluoro-5-methylbenzamide] | < 0.05 | 12600
4 | ++ (++ <0.6) | COc1cc(C(=O)NC2CCN(C3CC4(CCN(c5ccc(C6CCC(=O)NC6=O)cc5F)CC4)C3)CC2)ccc1Nc1ncc2c(n1)N(C(C)C)CC(F)(F)C(=O)N2C (stereo not drawn) [Compound 39, 4-((7,7-difluoro-9-isopropyl-5-methyl-6-oxo-6,7,8,9-tetrahydro-5H-pyrimido[4,5-b][1,4]diazepin-2-yl)amino)-N-(1-(7-(4-(2,6-dioxopiperidin-3-yl)-2-fluorophenyl)-7-azaspiro[3.5]nonan-2-yl)piperidin-4-yl)-3-methoxybenzamide] | < 0.05 | 5800
